This note sets out measurements from patent publication US20250161228A1, “COMPOSITIONS COMPRISING ULTRAFINE BUBBLES AND METHODS OF USING THEREOF IN A METHOD OF PRODUCING AND DELIVERING ACTIVE PHARMACEUTICAL INGREDIENTS AND OTHER DISSOLVED SOLUTES” (Hydrosome IP, LLC, priority 2023, published 2025).

In the assay the test system is Human embryonic kidney (HEK) cells. As to the kind of experiment: Intracellular zinc uptake study, colorimetric assay at 540 nm. It is filed as cell-based. As to the method:
Human embryonic kidney (HEK) cells were treated with a composition prepared in accordance with the disclosure, the composition comprising zinc in a Cellular Hydration Water Advanced Zinc Formulation (Zinc Formulation) to test intracellular zinc uptake in vitro. The composition comprised 93 micromolar zinc (II) ions. The HEK cells were treated with compositions comprising 10%, 50%, or 100% Zinc Formulation. Zinc content was measured at 15, 30, 45, and 60 minutes using a colorimetric assay measuring light absorbance at 540 nm. The changes in intracellular zinc content were compared to a control group of HEK cells treated with a ZnSO4 solution.

For the compound `O=S(=O)([O-])[O-].[Zn+2]` [ZnSO4], the “increase in intracellular zinc content” value is, setting by setting: (10% composition or its ZnSO4 control, 30 minutes) 20.4%; (50% composition or its ZnSO4 control, 15 minutes) 42%; (50% composition or its ZnSO4 control, 30 minutes) 29.6%; (50% composition or its ZnSO4 control, 60 minutes) 42.2%.
